According to patent publication US20190298720A1, “USE OF SRC FAMILY KINASE INHIBITOR IN RIBOSOMAL DISORDER” (BIOXCEL CORPORATION, priority 2016, published 2019):
“Also recorded” adds a separate entry of the source.

Legend:
[1] = test system: Id1 expression in lung cancer cell lines; conditions: cited from earlier work
[2] = test system: RPS19 knock-down zebrafish embryos; experiment: Erythropoiesis in a zebrafish model of DBA using RPS19 morpholino (o-dianisidine staining); format: in vivo; conditions: for % improvement of erythropoiesis / % intensity of staining: injected 1 cell stage & aqueous exposure, RPS19 Mo
Description: To evaluate the effect of Saracatinib, a Src kinase inhibitor (Lyn kinase) on improving erythropoiesis in a zebrafish model of DBA using RPS19 morpholino.
Materials: Zebrafish (One celled stage), RPS19 morpholino (1 ng) and standard control morpholino were dissolved in ultrapure water. Saracatinib (Selleckchem; Cat no. 51006) was dissolved in 1% DMSO to achieve […], 50 μM and 100 μM concentrations. 0-dianisidine staining solution was made by dissolving 100 mg of 0-dianisidine in 70 mL ethanol, Acetate buffer (49 mL, 0.1 M Sodium acetate and 51 mL, 0.1 M acetic acid), 3% Hydrogen peroxide and ultrapure water; Phosphate buffer saline (PBS), Para formaldehyde (PFA), Tricaine methane sulfonate (ms-222) and Bleach solution (equal parts of 1% Potassium hydroxide and 3% Hydrogen peroxide) were used in the experimental procedures.
(i) Control Mo, Egg water represents the zebrafish embryos which were injected with standard control morpholino, and 1% DMSO thriving in egg water, (ii) RPS19 Mo, Egg water represents wild type zebrafish embryos microinjected with 1 ng of RPS19 morpholino, and 1% DMSO; thriving in egg water, and (iii) RPS19 Mo+Saracatinib injected 1 cell stage and aqueous exposure represents zebrafish embryos which were microinjected with RPS19 morpholino and where Saracatinib was also microinjected at 1-cell stage along with adding Saracatinib in the aqueous phase or egg water.
The wild type zebrafish with egg water were placed in separate wells and were microinjected with standard control morpholino and 1% DMSO, which acted as normal control (Control Mo, Egg water). The wild type zebrafish eggs were injected with 1 ng of RPS19 morpholino and 1% DMSO at 1-cell stage (RPS19 Mo, Egg water), and were incubated at 28.5° C. for 96 hours. Saracatinib was microinjected in the zebra fish at one cell stage and also exposed in the media (aqueous exposure) to achieve optimal concentrations of 25 μM, 50 μM and 100 μM (RPS19 Mo+Saracatinib injected 1 cell stage and aqueous exposure). The experiment was carried out in the 6-well plates for control (Control Mo, Egg water); morpholinos group (RPS19 Mo, Egg water) and Saracatinib treatment group (RPS19 Mo+Saracatinib injected 1 cell stage and aqueous exposure) respectively. The incubation of the zebrafish in various groups was carried out up to 96 hours at 28.5° C. and the embryos were visually observed for any phenotypic changes or mortality. The embryos were euthanized at the end of the study by using tricaine methane sulfonate (ms-222), and fixed in 4% PFA for 2 hours at room temperature. After fixing and washing the embryos thoroughly (3 times) in 1×PBS, o-dianisidine staining was carried out for 30 minutes at room temperature in the dark to assess haemoglobin concentration. Embryos were then washed 3 times in 1×PBS and incubated in bleach solution for 20 minutes at room temperature. Further washing of the embryos were also carried out in 1×PBS to avoid any unnecessary staining. Quantitation of o-dianisidine staining in zebrafish embryos.
Haemoglobin quantification/total amount of the o-dianisidine staining on total embryo was calculated by using Image J software. The total embryo area and the intensity was noted by the software, by manually tracing the exact area of the embryo. The ratios of the intensity and the total embryo area was thus used to calculate the intensity per unit area which is then compared across groups (Control Mo, Egg water; RPS19 Mo, Egg water and RPS19 Mo+Saracatinib injected 1 cell stage and aqueous exposure). Percent intensity of staining of embryos was considered to be proportional to the haemoglobin concentration in each embryo and thus % improvement or recovery of erythropoiesis by administration of Saracatinib was further calculated.

[3] = test system: Lyn kinase; experiment: Lyn kinase activity in RPS19 knock-down zebrafish embryos; format: in vivo; conditions: 25 μM, 50 μM and 100 μM

Compound: CN1CCN(CCOc2cc(OC3CCOCC3)c3c(Nc4c(Cl)ccc5c4OCO5)ncnc3c2)CC1 [Saracatinib, N-(5-chloro-1,3-benzodioxol-4-yl)-7-[2-(4-methyl-1-piperazinyl)ethoxy]-5-[(tetrahydro-2H-pyran-4-yl)oxy]-4-quinazolinamine]
- Id1 expression [1]: downregulates the Id1 expression
- Erythropoiesis / erythropoietic defect (in words) ([2]; 25 μM, 50 μM and 100 μM, compared to RPS19 injected morpholinos, 96 hpf, o-dianisidine staining): rescue in haemopoietic defect; also recorded: dose related improvement in erythropoiesis; also recorded: improvement in the erythropoietic defect
- % improvement of erythropoiesis ([2]; Saracatinib 25 μM, 96 hpf): 10.49%
- % intensity of staining ([2]; Saracatinib 25 μM, 96 hpf): 2.646%
- % improvement of erythropoiesis ([2]; Saracatinib 50 μM, 96 hpf): 36.75%
- % intensity of staining ([2]; Saracatinib 50 μM, 96 hpf): 3.557%
- % improvement of erythropoiesis ([2]; Saracatinib 100 μM, 96 hpf): 19.82%
- % intensity of staining ([2]; Saracatinib 100 μM, 96 hpf): 3.18%
- Haemoglobin concentration (in words) ([2]; compared to zebrafish treated with RPS19 morpholino): increased haemoglobin concentration
- Lyn kinase activity [3]: decrease in the Lyn kinase activity
